Starred links: 1 amine or outer side, 2 acyl side, 3 side chain; linkers in the order of their positions; H or OH if unused. Non-standard residues stand in square brackets, D forms with d. Residues, ends and D or L forms follow the SMILES beside them. *: point of attachment. Nva(5-(4-Bn-piperidin-1-yl)) = N[C@@H](CCCN1CCC(Cc2ccccc2)CC1)C(=O)O; X5 = O=C1[C@@H](N[*:1])Cc2ccccc2CN1CCCC(=O)[*:2]; X1 = O=C1[C@@H](N[*:1])Cc2ccccc2CN1CCC(=O)[*:2]; Dmt = Cc1cc(O)cc(C)c1C[C@H](N)C(=O)O; X2 = c1ccc2[nH]c(*)nc2c1; X3 = c1ccc2oc(*)nc2c1; X4 = c1ccc2sc(*)nc2c1
Tests used:
human NPFF1R [1] = biological target: T1, human NPFF1R (Homo sapiens, UniProt Q9GZQ6); assay: Radioligand competition binding with [125I]-1-DMe-NPFF; design: expressed in transfected cells; HEK293-Glo20F cells (cAMP)
NPFF2R [2] = biological target: T2, NPFF2R (Homo sapiens, UniProt Q9Y5X5); assay: as above; design: expressed in transfected cells; HEK293-Glo20F cells (cAMP)
human MOPr [3] = biological target: T3, human MOPr (Homo sapiens, UniProt P35372); assay: cell-based; type: cell-based; design: expressed in transfected cells; HEK293-Glo20F cells (cAMP); conditions: for EC50: read-out: MOPr (cAMP) EC50; for Emax: read-out: MOPr (cAMP) Emax
Procedure: (§1) Stimulation by endogenous RF-amide peptides or test compounds for [^35S]-GTPγS binding to membranes from CHO cells expressing human NPFF1R or NPFF2R, were examined as reported. 1.6. Glo-Sensor cAMP Assay cAMP accumulation assay was essentially done as described with the following modifications: HEK293 cells stably expressing cAMP Glosensor-20F were used, with or without additional stable expression of each individual opioid receptor or NPFF1R. The cAMP responses were measured in presence of D-luciferin (1 mM).

human MOPr [4] = biological target: T3, human MOPr; assay: BRET1 β-arrestin-2 recruitment assay; type: cell-based; design: expressed in transfected cells; host or cells: HEK293 cells stably expressing eYFP-β-arrestin-2, transiently transfected with the Rluc8-MOP plasmid; conditions: for EC50: Table 3B, — = non-detectable recruitment, read-out: MOPr (β-arrestin-2) EC50; for Emax: read-out: MOPr (β-arrestin-2) Emax;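 on Emax: Emax relative to maximal DAMGO-induced BRET as 100%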;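 on MOPr (β-arrestin-2) Emax: Emax relative to maximal DAMGO-induced BRET as 100%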
Procedure: Peak response amplitudes were normalized to basal and maximal (cells permeabilized with 20 μM digitonin) fluorescence levels. 1.8. β-Arrestin-2 recruitment assay The β-arrestin-2 recruitment assay was performed as described [34; 45] with minor modifications. Briefly, two days prior the experiment, HEK293 cells stably expressing eYFP-tagged β-arrestin-2 were transfected with the plasmid encoding Rluc8-MOP receptor. β-Arrestin-2 recruitment was measured at 37° C. in presence of 5 μM Coelenterazine H, 5 min after agonist addition.

NPFF2R [5] = biological target: T2, NPFF2R; assay: [35S]-GTPγS binding assay; type: biochemical; design: expressed in transfected cells
Procedure: as §1

human NPFF1R [6] = biological target: T1, human NPFF1R; assay: [35S]-GTPγS binding assay; type: biochemical; design: expressed in transfected cells; conditions: for Emax: relative to RFRP3
Procedure: as §1

human MOPr [7] = biological target: T3, human MOPr; assay: Radioligand competition binding with [3H]-diprenorphine; design: expressed in transfected cells; HEK293-Glo20F cells (cAMP)
[8] = Table 3a, HEK293-Glo20F-hMOPr cells
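Wherever MOPr (cAMP) Emax is given: Emax relative to DAMGO as 100%.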

T2 sequence (Q9Y5X5 whole entry): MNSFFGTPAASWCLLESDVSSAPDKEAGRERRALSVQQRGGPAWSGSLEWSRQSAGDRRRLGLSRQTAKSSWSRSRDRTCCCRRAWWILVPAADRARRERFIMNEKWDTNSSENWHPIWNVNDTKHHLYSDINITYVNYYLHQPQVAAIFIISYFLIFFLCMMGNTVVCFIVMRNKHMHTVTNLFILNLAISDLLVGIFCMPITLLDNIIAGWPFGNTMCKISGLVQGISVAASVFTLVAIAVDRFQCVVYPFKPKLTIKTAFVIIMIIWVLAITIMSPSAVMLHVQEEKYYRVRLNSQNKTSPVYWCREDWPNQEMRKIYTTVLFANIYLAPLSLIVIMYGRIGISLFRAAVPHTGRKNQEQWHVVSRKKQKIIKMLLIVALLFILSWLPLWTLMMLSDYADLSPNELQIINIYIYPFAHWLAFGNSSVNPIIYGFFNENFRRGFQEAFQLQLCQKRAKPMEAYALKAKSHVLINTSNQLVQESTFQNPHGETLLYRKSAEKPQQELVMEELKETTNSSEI
T1 sequence (Q9GZQ6 whole entry): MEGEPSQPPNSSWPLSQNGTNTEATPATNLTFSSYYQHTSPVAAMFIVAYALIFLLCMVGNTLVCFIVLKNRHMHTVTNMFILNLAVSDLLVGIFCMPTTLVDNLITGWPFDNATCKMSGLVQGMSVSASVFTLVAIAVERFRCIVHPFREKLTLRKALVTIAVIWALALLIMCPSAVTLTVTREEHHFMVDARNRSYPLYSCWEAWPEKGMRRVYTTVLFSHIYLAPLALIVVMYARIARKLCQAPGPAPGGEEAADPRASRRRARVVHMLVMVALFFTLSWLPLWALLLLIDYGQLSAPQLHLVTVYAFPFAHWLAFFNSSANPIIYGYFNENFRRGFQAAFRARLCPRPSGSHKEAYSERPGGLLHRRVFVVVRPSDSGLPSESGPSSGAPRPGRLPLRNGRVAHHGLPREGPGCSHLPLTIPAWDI
T3 sequence (P35372 whole entry): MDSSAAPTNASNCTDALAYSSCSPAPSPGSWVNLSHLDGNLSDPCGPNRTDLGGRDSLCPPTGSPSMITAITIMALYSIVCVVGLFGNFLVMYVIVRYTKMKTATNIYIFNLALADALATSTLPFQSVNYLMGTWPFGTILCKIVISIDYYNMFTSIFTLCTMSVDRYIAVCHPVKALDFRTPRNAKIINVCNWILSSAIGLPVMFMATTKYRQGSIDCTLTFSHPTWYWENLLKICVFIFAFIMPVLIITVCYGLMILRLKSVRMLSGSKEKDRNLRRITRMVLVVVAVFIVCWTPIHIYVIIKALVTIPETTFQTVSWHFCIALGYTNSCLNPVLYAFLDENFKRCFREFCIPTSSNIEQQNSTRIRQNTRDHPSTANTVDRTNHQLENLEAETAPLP

Compound	IC50 (human NPFF1R [1]) [µM]	IC50 (NPFF2R [2]) [µM]	EC50 (human MOPr [3]; Table 3B) [µM]	Emax (human MOPr [3]) [%]	EC50 (human MOPr [4]) [µM]	Emax (human MOPr [4]) [%]	EC50 (NPFF2R [5]) [µM]	Emax (NPFF2R [5]) [%]	EC50 (human NPFF1R [6]) [µM]	Emax (human NPFF1R [6]) [%]	Ki (human MOPr [7]) [µM]	Ki (human NPFF1R [1]) [µM]	Ki (NPFF2R [2]) [µM]	EC50 (human MOPr [3]; [8]) [µM]
Cc1cc(O)cc(C)c1C[C@H](N)C(=O)N[C@H](CCCNC(=N)N)C(=O)N[C@H]1Cc2ccccc2CN(CCCC(=O)N[C@@H](CCCN2CCC(Cc3ccccc3)CC2)C(=O)N[C@H](C(N)=O)C(C)C)C1=O [DP0020, H-Dmt-D-Arg-AbaGABA-Bpa-Val-NH2] (H-[Dmt][dR][X5][Nva(5-(4-Bn-piperidin-1-yl))]V-NH2)	0.04 to 0.4	0.04 to 0.4	0.0063	101	0.149	53	–	–	–	–	–	–	–	–
Cc1cc(O)cc(C)c1C[C@H](N)C(=O)N[C@H](CCCNC(=N)N)C(=O)N[C@H]1Cc2c(ccc3ccccc23)CN(CC(=O)N[C@@H](CCCN2CCC(Cc3ccccc3)CC2)C(=O)N[C@H](C(N)=O)C(C)C)C1=O [DP0021, H-Dmt-D-Arg-1AnaGly-Bpa-Val-NH2]	0.04 to 0.4	< 0.04	0.0028 ± 0.0004	102 ± 3	0.109 ± 0.057	22	–	–	–	–	–	–	–	–
Cc1cc(O)cc(C)c1C[C@H](N)C(=O)N[C@H](CCCNC(=N)N)C(=O)N[C@H]1Cc2ccccc2CN(CCCC(=O)N[C@@H](CCCN2CCC(Cc3ccccc3)CC2)C(=O)N[C@@H](Cc2c[nH]c3ccccc23)C(N)=O)C1=O [DP0022, H-Dmt-D-Arg-AbaGABA-Bpa-Trp-NH2] (H-[Dmt][dR][X5][Nva(5-(4-Bn-piperidin-1-yl))]W-NH2)	~0.04	< 0.04	0.005	90	0.617 ± 0.205	30 ± 0.7	–	–	–	–	–	–	–	–
Cc1cc(O)cc(C)c1C[C@H](N)C(=O)N[C@H](CCCNC(=N)N)C(=O)N[C@H]1Cc2ccccc2CN(CC(=O)N[C@@H](CCCNC(=N)N)C(=O)N[C@@H](Cc2ccccc2)C(N)=O)C1=O [KGFF01, H-Dmt-D-Arg-Aba-Gly-Arg-Phe-NH2]	–	–	–	101 ± 7	–	–	0.128 ± 0.023	95 ± 6	0.155 ± 0.025	44 ± 8	0.00059 ± 0.00021	0.057 ± 0.01	0.0012 ± 0.0005	0.0024 ± 0.001
Cc1cc(O)cc(C)c1C[C@H](N)C(=O)N[C@H](CCCNC(=N)N)C(=O)N[C@H]1Cc2ccccc2CN(CC(=O)N[C@@H](CCCNC(=N)N)C(=O)N[C@@H](Cc2ccccc2)C(=O)O)C1=O [KGFF02, H-Dmt-D-Arg-Aba-Gly-Arg-Phe-OH]	–	–	–	89 ± 2	–	–	–	–	–	–	0.00059 ± 0.00015	2.54	0.251 ± 0.025	0.0015 ± 0.0007
Cc1cc(O)cc(C)c1C[C@H](N)C(=O)N[C@H](CCCNC(=N)N)C(=O)N[C@H]1Cc2ccccc2CN(CC(=O)N[C@@H](CCCN)C(=O)N[C@@H](Cc2ccccc2)C(N)=O)C1=O [KGFF04, H-Dmt-D-Arg-Aba-Gly-Orn-Phe-NH2]	–	–	–	70 ± 4	–	–	0.963 ± 0.168	67 ± 3	> 10	25 ± 4	0.00067 ± 0.00029	0.78 ± 0.09	0.045 ± 0.008	0.0095 ± 0.0015
Cc1cc(O)cc(C)c1C[C@H](N)C(=O)N[C@H](CCCNC(=N)N)C(=O)N[C@@H](Cc1ccccc1)C(=O)N[C@@H](CCCN)C(=O)N[C@@H](Cc1ccccc1)C(N)=O [KGFF05, H-Dmt-D-Arg-Phe-Orn-Phe-NH2] (HELM PEPTIDE1{[Cc1cc(O)cc(C)c1C[C@H](N)C(=O)[*:2]].[dR].F.[Orn].F.[am]}$$$$V2.0)	–	–	–	94 ± 2	–	–	–	–	–	–	0.0032 ± 0.0011	3.1	0.36 ± 0.05	0.0593 ± 0.0245
Cc1cc(O)cc(C)c1C[C@H](N)C(=O)N[C@@H](CCCNC(=N)N)C(=O)N[C@@H](Cc1ccccc1)C(N)=O [KGFF06, H-Dmt-Arg-Phe-NH2] (HELM PEPTIDE1{[Cc1cc(O)cc(C)c1C[C@H](N)C(=O)[*:2]].R.F.[am]}$$$$V2.0)	–	–	–	–	–	–	–	–	–	–	0.046 ± 0.022	0.147 ± 0.02	0.0159 ± 0.0018	2.3
Cc1cc(O)cc(C)c1C[C@H](N)C(=O)N[C@H](CCCNC(=N)N)C(=O)N[C@@H](Cc1ccccc1)C(N)=O [KGFF07, H-Dmt-D-Arg-Phe-NH2] (HELM PEPTIDE1{[Cc1cc(O)cc(C)c1C[C@H](N)C(=O)[*:2]].[dR].F.[am]}$$$$V2.0)	–	–	–	102 ± 2	–	–	1.93	87 ± 2	0.087 ± 0.007	84 ± 8	0.00029 ± 0.00013	0.0118 ± 0.0036	0.084 ± 0.026	0.0017 ± 0.0004
Cc1cc(O)cc(C)c1C[C@H](N)C(=O)N[C@H](CCCNC(=N)N)C(=O)N[C@H]1Cc2ccccc2CN(CCC(=O)N[C@@H](CCCN2CCCCC2)C(=O)N[C@@H](Cc2ccccc2)C(N)=O)C1=O [KGFF08, H-Dmt-D-Arg-Aba-β-Ala-Apa-Phe-NH2]	–	–	–	102 ± 3	–	–	0.574 ± 0.129	97 ± 2	–	23 ± 1	0.00094 ± 0.00019	–	0.0039 ± 0.0001	0.0099 ± 0.002
Cc1cc(O)cc(C)c1C[C@H](N)C(=O)N[C@@H](CCCN1CCCCC1)C(=O)N[C@@H](Cc1ccccc1)C(N)=O [KGFF10, H-Dmt-Apa-Phe-NH2]	–	–	–	91 ± 10	–	–	–	–	–	–	0.068 ± 0.048	> 10	2.1	0.598 ± 0.035
Cc1cc(O)cc(C)c1C[C@H](N)C(=O)N[C@@H](CCCN1CCC(Cc2ccccc2)CC1)C(=O)N[C@@H](Cc1ccccc1)C(N)=O [KGFF11, H-Dmt-Bpa-Phe-NH2]	–	–	–	–	–	–	–	–	–	–	> 10	2.72	0.406 ± 0.095	> 10
Cc1cc(O)cc(C)c1C[C@H](N)C(=O)N[C@H](CCCNC(=N)N)C(=O)N[C@H]1Cc2ccccc2CNC1=O [KGFF12, H-Dmt-D-Arg-Aba-NH]	–	–	–	103 ± 4	–	–	> 10	32 ± 17	> 10	13 ± 3	0.00017 ± 5e-05	2.49	0.375 ± 0.108	0.0027 ± 0.0015
CNC(=O)[C@H](Cc1ccccc1)NC(=O)[C@@H](CCCNC(=N)N)NC(=O)[C@@H](N)Cc1c(C)cc(O)cc1C [KGFF13, H-Dmt-D-Arg-Phe-NHMe] (HELM PEPTIDE1{[Cc1cc(O)cc(C)c1C[C@H](N)C(=O)[*:2]].[dR].F.[CN[*:1]]}$$$$V2.0)	–	–	–	97 ± 2	–	–	> 10	68 ± 8	> 10	39 ± 2	0.00011 ± 5e-05	0.147 ± 0.016	0.206 ± 0.047	0.001 ± 0.0004
Cc1cc(O)cc(C)c1C[C@H](N)C(=O)N[C@H](CCCNC(=N)N)C(=O)N[C@H]1Cc2ccccc2CN(CCC(=O)N[C@@H](CCCCNc2nc3ccccc3[nH]2)C(=O)N[C@@H](Cc2ccccc2)C(N)=O)C1=O [KGFF14, H-Dmt-D-Arg-Aba-β-Ala-Lys(Bim)-Phe-NH2] (H-[Dmt][dR][X1]K(X2)F-NH2)	–	–	–	99 ± 4	–	–	0.089 ± 0.007	73 ± 18	0.076 ± 0.026	74 ± 1	0.0016 ± 0.0003	0.00454 ± 1e-05	0.00415 ± 0.00135	0.0059 ± 0.0025
Cc1cc(O)cc(C)c1C[C@H](N)C(=O)N[C@H](CCCNC(=N)N)C(=O)N[C@H]1Cc2ccccc2CN(CCC(=O)N[C@@H](CCCCNc2nc3ccccc3o2)C(=O)N[C@@H](Cc2ccccc2)C(N)=O)C1=O [KGFF15, H-Dmt-D-Arg-Aba-β-Ala-Lys(Box)-Phe-NH2] (H-[Dmt][dR][X1]K(X3)F-NH2)	–	–	–	92 ± 13	–	–	0.93 ± 0.21	105 ± 15	1.02	51 ± 5	0.0018 ± 0.0009	0.088 ± 0.008	0.0096 ± 0.0006	0.0041 ± 0.0017
Cc1cc(O)cc(C)c1C[C@H](N)C(=O)N[C@H](CCCNC(=N)N)C(=O)N[C@H]1Cc2ccccc2CN(CCC(=O)N[C@@H](CCCCNc2nc3ccccc3s2)C(=O)N[C@@H](Cc2ccccc2)C(N)=O)C1=O [KGFF16, H-Dmt-D-Arg-Aba-β-Ala-Lys(Bth)-Phe-NH2] (H-[Dmt][dR][X1]K(X4)F-NH2)	–	–	–	93 ± 6	–	–	0.526 ± 0.012	88 ± 12	0.273 ± 0.115	51 ± 7	0.0026 ± 0.0013	0.08 ± 0.013	0.0104 ± 0.0023	0.0062 ± 0.002
